Data set [1] relates to iPSC-BMECs. As to the kind of experiment: Biphalin uptake studies in iPSC-BMECs. In kind it is in vitro ADME, human. The protocol: (§1) We measured the level of biphalin in cell lysate (uptake studies) and transport buffer (transport studies) while using our developed, highly sensitive LC-MS/MS method. Briefly, biphalin was extracted from the samples by the addition of acetonitrile (1:2) containing 10 ng/mL internal standard, [D-Ala^2] Leucine Enkephalin (Sigma-Aldrich, St. Louis, MO, USA). After 1-min. vortexing, the mixture is centrifuged at 10,000 rpm for 10 min. After that the supernatant is mixed with an equivalent volume of LCMS water and then loaded into the insert vials ready for the analysis. The UHPLC-MS/MS system equipped with AB SCIEX QTRAP® 5500 mass spectrometer (Foster City, CA, USA) attached to a Nexera ultra high performance liquid chromatography (UHPLC) system from Shimadzu Corporation (Columbia, MD, USA) was used. Data acquisition and quantification were performed by Analyst software 1.7.0.
(§2) Chromatographic separation was then performed with a Kinetex C18 column (50 × 2.1mm, 1.8 μm, Phenomenex, Torrance, CA, USA) while using mobile phases, 0.1% formic acid in water and 0.1% formic acid in acetonitrile. The gradients of acetonitrile (10% at time zero, 31% at 2.5 min., 90% at 2.6 min. up to 3.6, followed by 10% at 3.7 min. up to 4.5 min.) were used to elute biphalin at a flow rate of 0.4 mL/min. Column temperature was maintained at 45 °C. The retention time of biphalin was ∼1.8 min. while the retention time for the internal standard (IS) was ∼2.2 min. Multiple reaction monitoring was conducted in […], and the transitions for biphalin and internal standard were 455.2 → 136.2 m/z and 570.3 → 120.3 m/z, respectively. The collision energy for biphalin and IS was 40 and 45 volts, respectively.
Differentiated BMECs (iPSC-BMECs) are seeded in 12-well plates, incubated with either biphalin (10 µg/mL) (control) or pre-incubated with OATP1 substrate, estrone-3-sulfate (E3S) (10 µM) for 10 min., followed by co-incubation of E3S and 10 µg/mL biphalin in the 37 °C incubator for 20 min. The incubation time, 20 min. was selected to get detectable amount of biphalin in the cell extract. Next, the cells are washed two times with ice-cold phosphate buffered saline (PBS, pH 7.4). The cells were solubilized with 100 µL radioimmunoprecipitation assay (RIPA) Buffer (Thermo Fisher, Waltham, MA, USA) with protease and phosphatase inhibitor cocktail (Thermo Fisher, Waltham, MA, USA), and the amount of biphalin uptake was determined by using the above LCMS method. Protein content was calculated with a detergent-compatible bicinchoninic acid (BCA) assay (Pierce Chemical, Rockford, IL, USA). Biphalin uptake was normalized while using protein content and then presented as biphalin (ng) per µg of protein.
In vitro stroke conditions were simulated by exposing the cells to oxygen-glucose deprivation (OGD) conditions. Briefly, iPSC-BMECs were rinsed twice with Dulbecco’s Modified Eagle medium Solution (DMEM). The cells were incubated with DMEM media (without glucose) plus 1% of PDS [33]. Hypoxia (1% oxygen) was induced by placing the cells in a hypoxic polymer glove box (Coy Laboratories, Grayslake, MI, USA), which was infused with 95% N2 and 5% CO2 at 37 °C. Cells were exposed to OGD condition for 1 h, 2 h, and 6 h, followed by reperfusion with OGD media with glucose and sodium pyruvate. For reperfusion studies, the cells were incubated in the CO2 incubator for pre-determined timepoints, 30 min., 1 h, 2 h, and 6 h.

For data set [2] the following is noted: cited from earlier work. The text has this:
Our lab has communicated several studies that reported the neuroprotective potential of biphalin, an ultra-potent, non-selective, opioid agonist, in models of both permanent and transient ischemic stroke.

The test system of data set [3] is iPSC-BMECs monolayer. Put plainly: Biphalin transcellular transport across iPSC-BMECs monolayer (transwell in vitro BBB model). In kind it is in vitro ADME, human. The method, then:
as §1, §2
(§3) Transport studies were performed to determine the role of OATP1 on the blood-to-brain transport of biphalin. Confluent iPSC-BMECs, (one million cells/insert) were seeded to the apical side of a 12-well transwell insert (area 1.12 cm^2, polyester), which is pre-coated with 400 µg/mL collagen and 100 µg/mL fibronectin [35]. 10 µg/mL biphalin and an equivalent concentration of FITC-dextran (4kD) were added to the apical compartment. For studies using an inhibitor and OATP1 substrate, E3S was pre-incubated for 30 min., followed by incubation with biphalin and E3S [11]. E3S was added to both the luminal and abluminal sides to inhibit the transporters on both sides. The results were expressed as a net permeability coefficient (PC) after subtracting the PC of FITC-dextran from the PC of biphalin.
(§4) In vitro stroke conditions were simulated by exposing the cells to oxygen-glucose deprivation (OGD) conditions. […] For reperfusion studies, the cells were incubated in the CO2 incubator for pre-determined timepoints, 30 min., 1 h, 2 h, and 6 h.

Data set [4] relates to OATP1. The description is as above. Format: in vitro ADME, human. Particulars: human; normoxic; E3S pre-incubated 30 min, both luminal and abluminal sides, then biphalin 10 µg/mL plus E3S; A-B; corrected for FITC-dextran 4 kD; LC-MS/MS; mean ± SD, n = 4; read-out: net permeability coefficient (PC) of biphalin, apical to basolateral, with E3S (converted). The protocol:
as §1, §2, §3, §4

The values that follow come from PMC6781285, “Brain Delivery of a Potent Opioid Receptor Agonist, Biphalin during Ischemic Stroke: Role of Organic Anion Transporting Polypeptide (OATP)” (Pharmaceutics, 2019).

`C[C@@H](NC(=O)[C@@H](N)Cc1ccc(O)cc1)C(=O)NCC(=O)N[C@@H](Cc1ccccc1)C(=O)NNC(=O)[C@H](Cc1ccccc1)NC(=O)CNC(=O)[C@@H](C)NC(=O)[C@@H](N)Cc1ccc(O)cc1` [biphalin]: the biphalin uptake in data set [1] (2 h OGD + 6 h reperfusion, LC-MS/MS, mean ± SD, n = 4) was 2.5 ± 0.2 ng/µg; in data set [1] (6 h OGD + 30 min reperfusion, LC-MS/MS, mean ± SD, n = 4) it was 2 ± 0.25 ng/µg; in data set [1] (6 h OGD + 6 h reperfusion), “decreased to the basal normoxic level”; in data set [1] (after 1 h OGD, biphalin 10 µg/mL, 20 min, LC-MS/MS, mean ± SD, n = 4), 1.31 ± 0.2 ng/µg; in data set [1] (after 2 h OGD, biphalin 10 µg/mL, 20 min, LC-MS/MS, mean ± SD, n = 4) it was 1.89 ± 0.015 ng/µg; in data set [1] (after 6 h OGD, biphalin 10 µg/mL, 20 min, LC-MS/MS, mean ± SD, n = 4), 1.64 ± 0.15 ng/µg. Besides, the biphalin uptake in data set [1] (normoxic, without E3S, biphalin 10 µg/mL, 20 min, 37 °C, cell lysate (RIPA), LC-MS/MS, normalized to protein (BCA), mean ± SD, n = 4) is reported as 0.49 ± 0.05 ng of biphalin per 1 ug of protein. In addition, the “increase of biphalin uptake compared to normoxic conditions” value is reported as 2.8 fold in data set [1] (after 2 h OGD exposure (1% oxygen, no glucose), n = 4) and 2.4 fold in data set [1] (after 6 h OGD exposure (1% oxygen, no glucose), n = 4). For the same molecule, in data set [1] (average over selected OGD and OGD-reperfusion timepoints (2 h OGD, 6 h OGD, 2 h OGD + 6 h R, 6 h OGD + 30 min R), n = 3), the “average reduction of biphalin uptake by E3S pre-incubation” value was determined as 26.59 ± 8.01%. Moreover, the “reduction of biphalin uptake by E3S” value in data set [1] (normal (normoxic) conditions, E3S 10 µM) is recorded as “approximately 23%”. Further, in data set [1] (normoxic, E3S (OATP1 substrate) 10 µM pre-incubated 10 min, then co-incubated with biphalin 10 µg/mL 20 min, 37 °C, LC-MS/MS, mean ± SD, n = 4), the “biphalin uptake with E3S” value turned out to be 0.37 ± 0.05 ng/ug protein. In addition, in data set [2], the “injected dose accumulated in the brain” value is reported as 0.05%. Moreover, the “average reduction of biphalin transport in the presence of E3S” value in data set [3] (A-B, average over OGD and OGD-reperfusion timepoints, E3S pre-treated 30 min, n = 3) is on record as 37.96 ± 12.51%. In addition, the “transport of biphalin from basolateral to apical side (B to A)” value in data set [3] (B-A, to determine the role of P-gp or other efflux mechanisms, data not shown) is “negligible”. For the same molecule, the “reduction of biphalin transport by E3S” value in data set [3] (normal (normoxic) conditions, A-B, E3S pre-incubated 30 min) is roughly 40%. Besides, in data set [4], the Papp A→B at 10 µg/mL is 5.67 ×10⁻⁶ cm/s.
